Measurements taken from patent US9518018B2, “3-alkoxy, thioalkyl and amino-4-amino-6-(substituted)picolinates and their use as herbicides” (Dow AgroSciences LLC, priority 2011, dated 2016).

Key:
[1] = tested on: POLCO: buckwheat, wild (Polygonum convolvulus); experiment: Post-Emergent Test I herbicidal activity; format: in vivo; conditions: for GR20 POLCO: Table 4, growth reduction of 20% of plant growth; for GR20 POLCO / GR50 POLCO / GR80 POLCO: 14 days after application, probit analysis; for GR50 POLCO: Table 4, growth reduction of 50% of plant growth; for GR80 POLCO: Table 4, growth reduction of 80% of plant growth
Summary of the method: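 Visual injury ratings (0 = none, 100 = complete kill) taken 14 d after treatment underlie these values, with GR20, GR50 and GR80 obtained by probit analysis. Plants were treated post-emergence at the first or second true-leaf stage by overhead spray at 187 L/ha.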

[2] = tested on: TRZAS: wheat, spring (Triticum aestivum); experiment: Post-Emergent Test I herbicidal activity; format: in vivo; conditions: for GR20 TRZAS: Table 4, growth reduction of 20% of plant growth; for GR20 TRZAS / GR50 TRZAS / GR80 TRZAS: 14 days after application, probit analysis; for GR50 TRZAS: Table 4, growth reduction of 50% of plant growth; for GR80 TRZAS: Table 4, growth reduction of 80% of plant growth
Summary of the method: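 Post-emergence foliar application to young greenhouse plants at 187 L/ha, five rates down to 1/16× of the top rate. Percent injury is assessed visually two weeks later against untreated plants.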

SMILES	Visual Growth Reduction (%)-14 Days after Application POLCO ([1]; Table 4, 17.5 g ai/ha) [%]	Visual Growth Reduction (%)-14 Days after Application POLCO ([1]; Table 4, 35 g ai/ha) [%]	Visual Growth Reduction (%)-14 Days after Application POLCO ([1]; Table 4, 70 g ai/ha) [%]	Visual Growth Reduction (%)-14 Days after Application POLCO ([1]; Table 4, 140 g ai/ha) [%]	Visual Growth Reduction (%)-14 Days after Application POLCO ([1]; Table 4, 280 g ai/ha) [%]	GR20 POLCO [1] [g ai/ha]	GR50 POLCO [1] [g ai/ha]	GR80 POLCO [1] [g ai/ha]	Visual Growth Reduction (%)-14 Days after Application TRZAS ([2]; Table 4, 17.5 g ai/ha) [%]	Visual Growth Reduction (%)-14 Days after Application TRZAS ([2]; Table 4, 35 g ai/ha) [%]	Visual Growth Reduction (%)-14 Days after Application TRZAS ([2]; Table 4, 70 g ai/ha) [%]	Visual Growth Reduction (%)-14 Days after Application TRZAS ([2]; Table 4, 140 g ai/ha) [%]	Visual Growth Reduction (%)-14 Days after Application TRZAS ([2]; Table 4, 280 g ai/ha) [%]	GR20 TRZAS [2] [g ai/ha]	GR50 TRZAS [2] [g ai/ha]	GR80 TRZAS [2] [g ai/ha]	Visual Growth Reduction (%)-14 Days after Application POLCO ([1]; Table 4, 8.75 g ai/ha) [%]	Visual Growth Reduction (%)-14 Days after Application TRZAS ([2]; Table 4, 8.75 g ai/ha) [%]
COC(=O)c1nc(Cl)cc(N)c1OC [Compound 1, methyl 4-amino-6-chloro-3-methoxypicolinate]	100	100	100	95	100	<17.5	<17.5	<17.5	0	0	0	0	0	>280	>280	>280		
COC(=O)c1nc(-c2ccc(Cl)cc2F)cc(N)c1OC [Compound 6, Methyl 4-amino-6-(4-chloro-2-fluorophenyl)-3-methoxypicolinate]	100		100	100		10.7	12.4	14.3	0	15	45	50		47.5	109	>140	0	0
COc1c(C(=O)O)nc(-c2ccc(Cl)c(OC)c2F)c(F)c1N [Compound 45, 4-amino-6-(4-chloro-2-fluoro-3-methoxyphenyl)-5-fluoro-3-methoxypicolinic acid]	100	100	100	100		<8.75	<8.75	<8.75	20	55	60	65		14.3	53.5	>140	100	10
COc1c(N)cc(-c2ccc(Cl)cc2)nc1C(=O)O [Compound 46]	80	90	100	100	100	<17.5	<17.5	18.6	15	20	40	70	75	27.1	91.7	310		
COc1c(C(=O)O)nc(-c2ccc(Cl)cc2)c(F)c1N [Compound 47]	100	100	100	100		<8.75	<8.75	<8.75	15	30	45	50		30.6	98.6	>140	100	0
